Experimental data reported in US9005636B2, “Pharmaceutical composition comprising metformin and rosuvastatin” (BCWorld Pharm Co., Ltd., priority 2009, dated 2015).

Assays:
Type in all cases: cell-based, rat
PGC-1 α = test: ELISA of PGC-1 α protein expression
L6 muscle cells [1] = test: Cell morphology (confluence) of L6 muscle cells by microscope; conditions: 48 hours
Description: (§1) Rat myoblast cell line L6 used herein was obtained from Korean Cell Line Bank. Cells were cultured until the number of cells reached 1×10^6 in T-75 flask (BD Biosciences) using DMEM (Dulbecco's Modified Eagle medium) supplemented with 4.5 g/L of D-glucose, L-glutamine, 0.11 g/L of sodium pyruvate and 10% FBS (Fetal bovine serum, Gibco; Invitrogen Corp., CA, USA). To differentiate cells, the medium with 2% HS (Horse serum, Gibco; Invitrogen Corp., CA, USA) was inoculated and the cells were incubated at 37° C. in 5% CO2 incubator (Forma scientific, Germany). The medium was replaced every 2 days and subculture was conducted every 3 to 4 days. In addition, the myoblast cells, used in this experiment, were differentiated up to 0.3×10^6 in 6 well plate (BD biosciences) before they were used. After the washing step with PBS (Gibco; Invitrogen Corp., CA, USA), the cells were used for ELISA, MTT and PCR analysis.
To compare the morphology of L6 muscle cells on the concentration of metformin, 0.5×10^5 muscle cells were seeded onto each well in 6 well plate (Falcon) and incubated at 37° C. in 5% CO2 incubator for 24 hours. 20 μM of rosuvastatin was treated and 0, 1, 10, 20, and 100 μM of metformin was treated, respectively. After 48 hours, all of them were observed using a microscope (IS-70, Olympus),

L6 muscle cells [2] = test: MTT assay, viability of L6 muscle cells; conditions: 20 μM of rosuvastatin only, 48 hours
Description: MTT assay was carried out to determine the viability of L6 muscle cells. 1×10^4 cells were seeded onto each well in 96 well plate and incubated at 37° C. in 5% CO2 incubator for 24 hours.
20 μM of rosuvastatin was treated and 0, 1, 10, 20 and 100 μM of metformin was treated, respectively. […] Lastly, the optical density of formazan was measured at 570 nm using an ELISA Reader.

Atrogin-1 mRNA = test: RT-PCR of Atrogin-1 mRNA in L6 muscle cells; conditions: 20 μM of rosuvastatin
Description: as §1
To measure the mRNA level of Atrogen-1 in muscle cells depending on concentration of metformin, the cells were homogenized in 500 μl of Trizol (Invitrogen) and 3 μg of total RNA was collected using a cell scraper. […]

Atrogin-1 = test: ELISA of Atrogin-1 protein expression; conditions: as the concentration of rosuvastatin was increased
Description: as §1, with “analysis. […] Non-bound material was removed after washing four times with phosphate-buffered saline containing 0.2% tween 20 (PBS-T). The plate was washed 4 times with PBS buffer containing 0.2% Tween 20; and 200 μl of blocking solution (GenDEPOT) containing 1% BSA (Bovine Serum Albumin) with PBS was seeded onto each well and incubated for 2 hours at 4° C. […] Lastly, the absorbance was measured at 450 nm using an ELISA reader.” for “analysis.”

Row | confluence of L6 cells compared to the group without treatment (L6 muscle cells [1]; 20 μM of rosuvastatin) | SMILES | protein level of PGC-1 α compared to negative control (PGC-1 α; 0.1 μM of metformin) | protein level of PGC-1 α (PGC-1 α; more than 1 μM of metformin) | confluence of L6 cells (L6 muscle cells [1]; 20 μM of rosuvastatin plus 1, 10, 20, 100 μM of metformin) | viability of the cells (MTT) (L6 muscle cells [2]) | mRNA expression of Atrogin-1 compared to negative control (Atrogin-1 mRNA) | protein expression of Atrogin-1 (Atrogin-1)
1 |  | CN(C)C(=N)N=C(N)N [metformin] | did not show a significant difference | increase | increased as the concentration of metformin increased |  |  | 
2 | decreased significantly | CC(C)c1nc(N(C)S(C)(=O)=O)nc(-c2ccc(F)cc2)c1/C=C/[C@@H](O)C[C@@H](O)CC(=O)O [rosuvastatin] |  |  |  | significant decrease | increased | increased
